EP0658109B1, “METALLO PORPHYRIN COMPOSITIONS” (priority 1992, dated 1994)
Like-named read-outs stand apart in the source and are kept apart here.

How the values were obtained:
[1] = MTT cell viability assay (cytotoxicity); type: cell-based, monkey; conditions: monkey, cytotoxicity towards COS A6 cells cultured in the absence of FCS, read-out: LD50 (the source's name)
From the text: (§1) Ex vivo Assay of HIV-1 Polyprotein Processing. COS A6 cells were the result of stable integration of the vector HIV-gpt by transfection of COS-7 cells. This SV40-based vector consists of the HIV-1 HXB2 strain proviral genome where the gp160 sequences were replaced by the […] (gpt) gene. Following transfection, the cells were placed under selection for gpt expression by adding mycophenolic acid to the media. Surviving cells were later cloned and assayed for expression of gag p24 protein by ELISA and Western blots of culture supernatants and whole cell extracts. The cloned COS A6 cell line was maintained in DME H21 supplemented with 10% dialyzed and refiltered fetal calf serum (FCS), antibiotics (100 U/ml penicillin G, 100 µg/ml streptomycin sulfate), hypoxanthine (14 µg/ml), xanthine (250 µg/ml), and mycophenolic acid (25 µg/ml), at 37°C and 5% CO2.
(§2) MTT Cell Viability Assay. Cell survival was assessed by a quantitative colorimetric assay. The tetrazolium salt 3-(4,5-dimethylthiazol-2-yl)2,5-diphenyltetrazolium bromide (MTT) is cleaved by dehydrogenases in active mitochondria of living cells to yield a change in color from yellow to purple. To obtain the LD50 values for each compound, the concentration was determined at which the absorbance at 550-570 nm was half of that for the untreated cells. Compounds were tested in duplicate, in serial dilutions generally ranging from 10-250 µM concentrations in the presence of 0-0.1% DMSO. MTT assays were carried out in both the presence and absence of 10% FCS.
(§3) Cytotoxicity of compounds (LD50) and their ability to inhibit capsid protein processing ex vivo during 4 hour incubations (IC50) were studied. A plasmid which encodes the HIV-1 proviral genome, with the exception of the […] envelope protein, was stably introduced into the monkey cell line COS 7. Cloned progeny, COS A6 cells, constitutively release viral capsids into the media. Inhibition of polyprotein processing was determined by measuring the amount of p24 present in the viral capsid samples with an ELISA assay. The decrease in the amount of detectable p24 antigen correlated with a specific inhibition of HIV PR activity, judged by the accumulation of capsid precursor in conjunction with a disappearance of the p24 mature protein band in Western blots. The MTT stain assay was used to obtain LD50 values for all the compounds tested.

[2] = target: T1, Recombinant HIV-1 protease (HIV-1 PR) (Human immunodeficiency virus type 1 group M subtype B, UniProt P03369); type: biochemical
T1 construct: Recombinant HIV-1 protease (HIV-1 PR) was expressed and purified; made in house; host or cells: E. coli strain D1210
Experimental: (§4) Recombinant Protein Preparation. Recombinant HIV-1 protease (HIV-1 PR) was expressed and purified from E. coli strain D1210 using the pSOD/PR179 vector. Recombinant HIV-2 protease (HIV-2 PR) and SIV protease (SIV PR) were expressed and purified from strain X90 using pTacTac vectors.
(§5) Enzyme Assays. HIV-1, HIV-2, and SIV PRs were assayed against the decapeptide corresponding to the HIV-1 PR C-terminal autoprocessing site, by means of a discontinuous HPLC assay. Recombinant human renin and porcine pepsin were obtained and assayed using standard conditions. Bovine cathepsin D and its chromogenic substrate were purchased from Sigma. The enzyme was assayed by standard methods.
Stock solutions of the porphyrin derivatives (1 µ M-10mM) in 100% DMSO were used in IC50 determinations. […] Control reactions contained 5% DMSO only. Enzymes were preincubated with inhibitor for 1 minute at 25°C, followed by addition of substrate to initiate the reaction. As earlier noted, assays were also carried out in the absence of DMSO, when possible.
Figure 1 is a Dixon plot of inventive embodiment 5 (which is a representative example of the other embodiments) in inhibition of HIV-1 protease, where purified HIV-1 protease (6 x 10^-1 mg/ml) was incubated with the inventive inhibitor in 50 mM sodium acetate buffer, pH 5.5, containing 1 mM dithiothreitol, 1 mM EDTA, and 1 M NaCl. […] The assay solutions were incubated for 30-45 minutes at 37° and enzyme activity was determined by quantitation of the hydrolysis products on HPLC.

[3] = target: T2, Recombinant HIV-2 protease (HIV-2 PR) (Human immunodeficiency virus type 2 subtype A, UniProt P04584); test: HIV-2 protease inhibition, discontinuous HPLC assay of decapeptide cleavage; type: biochemical
T2 construct: Recombinant HIV-2 protease (HIV-2 PR) and SIV protease (SIV PR) were expressed and purified; made in house; host or cells: strain X90 (E. coli by own knowledge)
T2 sequence (P04584 514-612 limits assumed): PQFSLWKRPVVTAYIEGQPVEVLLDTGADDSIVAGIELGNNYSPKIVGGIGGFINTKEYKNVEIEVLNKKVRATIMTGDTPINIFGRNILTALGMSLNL
Experimental: as §4, §5
(§6) Stock solutions of the porphyrin derivatives (1 µ M-10mM) in 100% DMSO were used in IC50 determinations. Since many of the derivatives were insoluble in buffer alone, including the free acid forms of the carborane compounds, DMSO was used to increase solubility and allow a comparison of the binding affinity. Compounds were added to buffer solutions containing additional DMSO to give a final concentration of 5%. Control reactions contained 5% DMSO only. Enzymes were preincubated with inhibitor for 1 minute at 25°C, followed by addition of substrate to initiate the reaction. As earlier noted, assays were also carried out in the absence of DMSO, when possible. Dipotassium salts of several of the inhibitors were soluble in aqueous solution and were assayed in the absence of DMSO for K1 and IC50 determinations.

SIV protease (SIV PR) = target: T3, SIV protease (SIV PR) (Simian immunodeficiency virus, UniProt P05896); test: SIV protease inhibition, discontinuous HPLC assay of decapeptide cleavage; type: biochemical; conditions: absence of DMSO
T3 construct: SIV protease (SIV PR) were expressed and purified from strain X90; made in house; host or cells: strain X90 (E. coli by own knowledge)
T3 sequence (P05896 501-596): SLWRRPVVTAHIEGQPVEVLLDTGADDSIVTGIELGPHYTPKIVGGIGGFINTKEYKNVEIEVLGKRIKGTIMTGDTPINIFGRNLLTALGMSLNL
Experimental: as §4, §5
as §6, with “Dipotassium salts of several of the inhibitors were soluble in aqueous solution and were assayed in the absence of DMSO for K1 and IC50 determinations.” left out

Recombinant human renin = target: T4, Recombinant human renin (Homo sapiens, UniProt P00797); test: Renin inhibition, standard conditions; type: biochemical; conditions: absence of DMSO
T4 sequence (P00797 67-406): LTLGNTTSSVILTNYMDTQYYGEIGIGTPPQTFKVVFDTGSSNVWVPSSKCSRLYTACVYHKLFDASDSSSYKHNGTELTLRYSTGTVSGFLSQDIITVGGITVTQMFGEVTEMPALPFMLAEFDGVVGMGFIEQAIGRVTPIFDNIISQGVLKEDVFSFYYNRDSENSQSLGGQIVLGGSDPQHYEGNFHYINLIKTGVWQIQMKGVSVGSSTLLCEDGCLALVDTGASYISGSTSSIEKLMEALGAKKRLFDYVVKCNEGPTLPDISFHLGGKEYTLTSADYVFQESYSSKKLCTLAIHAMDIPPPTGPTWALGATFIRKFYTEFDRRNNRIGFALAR
Experimental: as §5, §6

porcine pepsin = porcine pepsin (Sus scrofa, UniProt P00791); test: Pepsin inhibition, standard conditions; type: biochemical; conditions: absence of DMSO
Chain of porcine pepsin (P00791 60-385): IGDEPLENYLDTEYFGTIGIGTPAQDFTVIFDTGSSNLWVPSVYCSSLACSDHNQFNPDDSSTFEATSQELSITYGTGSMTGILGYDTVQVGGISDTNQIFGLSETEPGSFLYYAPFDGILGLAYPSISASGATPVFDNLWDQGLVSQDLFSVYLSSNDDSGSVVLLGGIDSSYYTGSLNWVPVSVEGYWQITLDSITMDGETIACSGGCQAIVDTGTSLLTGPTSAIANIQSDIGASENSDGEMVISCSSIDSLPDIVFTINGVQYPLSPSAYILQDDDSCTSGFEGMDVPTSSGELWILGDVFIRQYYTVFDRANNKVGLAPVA
Experimental: as §5, §6

Bovine cathepsin D = target: T5, Bovine cathepsin D (Bos taurus, UniProt P80209); test: Cathepsin D inhibition, chromogenic substrate; type: biochemical; conditions: absence of DMSO
T5 construct: purchased Sigma
T5 sequence (P80209 45-390): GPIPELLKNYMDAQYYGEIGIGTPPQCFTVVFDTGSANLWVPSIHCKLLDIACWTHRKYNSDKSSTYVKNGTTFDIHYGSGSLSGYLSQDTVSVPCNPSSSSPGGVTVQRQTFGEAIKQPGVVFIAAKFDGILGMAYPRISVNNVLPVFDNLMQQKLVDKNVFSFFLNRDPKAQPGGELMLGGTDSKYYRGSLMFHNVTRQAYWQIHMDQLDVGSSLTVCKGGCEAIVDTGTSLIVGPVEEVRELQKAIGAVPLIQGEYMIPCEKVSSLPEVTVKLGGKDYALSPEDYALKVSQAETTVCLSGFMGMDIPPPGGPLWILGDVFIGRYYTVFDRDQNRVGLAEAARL
Experimental: as §5, §6

COS A6 cells = test: MTT cell viability assay (cytotoxicity); type: cell-based, monkey; conditions: cytotoxicity towards COS A6 cells cultured in the absence of FCS, read-out: LD50 (the source's name)
From the text: as §1, §2, §3

C6 glioma = test: Colony survival (cytotoxicity); type: cell-based; conditions: in the presence of FCS, read-out: LD50 (the source's name)
V79 CHO cells = test: Colony survival (cytotoxicity); type: cell-based; conditions: in the presence of FCS, read-out: LD50 (the source's name)
mice = test: Tolerance in mice; type: in vivo; conditions: doses as high as 200 mg/kg

CC1=C(C(COC(=O)c2ccc(N(C)C)cc2)OC(=O)c2ccc(N(C)C)cc2)c2cc3nc(cc4[nH]c(cc5[nH]c(cc1n2)c(C)c5CCC(=O)O)c(CCC(=O)O)c4C)C(C(COC(=O)c1ccc(N(C)C)cc1)OC(=O)c1ccc(N(C)C)cc1)=C3C (centres unmarked) [Comparative Embodiment 9]
CC50 [1]: > 250 µM

CC1=C(C(COC(=O)c2ccccc2)OC(=O)c2ccccc2)c2cc3nc(cc4[nH]c(cc5[nH]c(cc1n2)c(C)c5CCC(=O)O)c(CCC(=O)O)c4C)C(C(COC(=O)c1ccccc1)OC(=O)c1ccccc1)=C3C (centres unmarked) [Comparative Embodiment 10]
CC50 [1]: 250 µM

CC1=C(C(COC(=O)c2ccc3ccccc3c2)OC(=O)c2ccc3ccccc3c2)c2cc3nc(cc4[nH]c(cc5[nH]c(cc1n2)c(C)c5CCC(=O)O)c(CCC(=O)O)c4C)C(C(COC(=O)c1ccc2ccccc2c1)OC(=O)c1ccc2ccccc2c1)=C3C (centres unmarked) [Comparative Embodiment 11]
CC50 [1]: 250 µM

CC1=C(C(O)CO)c2cc3nc(cc4[nH]c(cc5[nH]c(cc1n2)c(C)c5CCC(=O)O)c(CCC(=O)O)c4C)C(C(O)CO)=C3C (centres unmarked) [Comparative Embodiment 12]
CC50 [1]: 250 µM

tetra-carborane carboxylate ester of 2,4-Di(α,β-dihydroxyethyl)deuteroporphyrin (IX) [Inventive Embodiment 1]
IC50 ([2]; absence of DMSO, dipotassium salts in aqueous solution, read-out: IC50 HIV-1 PR): 0.05 µM | fold more effective for HIV-1 PR than for HIV-2 and SIV PRs ([2]; from Table 4, absence of DMSO): approximately 5 fold | fold more inhibitory for HIV-1 PR compared to cellular aspartyl proteases ([2]; from Table 4, absence of DMSO, listed as Inventive embodiment 1): at least 60 fold | fold more inhibitory for HIV-1 PR compared to cellular aspartyl proteases ([2]; from Table 4, absence of DMSO, listed as inventive embodiment 1): at least a sixty-fold | IC50 ([2]; in the presence of 5% DMSO, read-out: IC50 in vitro HIV-1): 0.185 µM | decrease of inhibition of HIV-1 PR by fetal calf serum ([2]; incubation with 0.1% FCS, 50 nM inhibitor): more than 50% | IC50 ([2]; matches the series without DMSO, read-out: IC50 HIV-1 protease): 0.05 µM | IC50 ([3]; absence of DMSO, dipotassium salts in aqueous solution, read-out: IC50 HIV-2 PR): 0.23 µM | IC50 ([3]; in the presence of 5% DMSO, read-out: IC50 in vitro HIV-2): 0.7 µM | IC50 ([3]; matches the series without DMSO, read-out: IC50 HIV-2 protease): 0.23 µM | IC50 (SIV protease (SIV PR)): 0.25 µM | IC50 (Recombinant human renin): 3 µM | IC50 (porcine pepsin): 4 µM | IC50 (Bovine cathepsin D): 10 µM | CC50 (COS A6 cells): 25 µM | CC50 (C6 glioma): 100 to 125 µM | CC50 (V79 CHO cells): ≥ 150 µM | tolerance in mice (morbidity or mortality) (mice): no apparent signs of morbidity or mortality | concentrations readily prepared in water (water solubility): 100 to 200 mg/mL
